The source of these data is the supplement of paper PMC11208160.

This series in a line: recombinant barcode read abundance after kanamycin selection (control-corrected) (log10(CPM+1)); higher = more efficient recombination; sequences stand for … in AGTGCAGAGAAAATCGGCCAGTTTTCTCTGCCTGCAGTCCGCATGCCGT…AGATTTATGCAGCGGACTGCCTTTCTCCCAAAGTGATAAACCGGACAGTATCATGGACCGGTTTTCCCGGTAATCCGTATTTGCAAGGTTGGTTTCACT; site = the 11-nt target. A digest of the protocol:
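IS621 bridge RNA target-binding loops were paired with targets in a pooled library tested in E. coli. After co-electroporation with a donor plasmid, cells were plated in two replicates on chloramphenicol/ampicillin LB agar (control) and on chloramphenicol/ampicillin/kanamycin carrying 0.1 mM IPTG. Barcodes at recombinant junctions were counted as counts per million, averaged and control-corrected to give recombination efficiency. Values are log10(CPM+1).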
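Further: IS621 recombinase and bridge RNA in Escherichia coli cells.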

Turning to “CTACGTTCTTGGGTTCTAACCTGTTGCAC (site CTACGATCTGT)”, the “recombinant barcode read abundance (log10)” value came to 0.0857. In the case of “CTACGTTCTTGGGTTCTAACCTGTTGCAC (site CTACGCTCTGT)” it was 0; in that of “CTACGTTCTTGGGTTCTAACCTGTTGCAC (site CTACGGTCTGT)”, 0.0816.

As for “CTACGTTCTTGGGTTCTAACCTGTTGCAC (site CTACGTTCTGT)”, the “recombinant barcode read abundance (log10)” value was 1.1. For “CTACTAGCTTGGGTTCTAACCTGTTGCAG (site CTACTAGCTAT)” the value was 0.173.

Consider “CTACTAGCTTGGGTTCTAACCTGTTGCAG (site CTACTAGCTCT)”, for which the “recombinant barcode read abundance (log10)” value stood at 2.5.

Consider “CTACTAGCTTGGGTTCTAACCTGTTGCAG (site CTACTAGCTGT)”, for which the “recombinant barcode read abundance (log10)” value came out at 0.0122. In the case of “CTACTAGCTTGGGTTCTAACCTGTTGCAG (site CTACTAGCTTT)” it was 0.0541; in that of “CTACTAGCTTGGGTTCTAACCTGTTGCAT (site CTACTAGCTAT)”, 1.18; in that of “CTACTAGCTTGGGTTCTAACCTGTTGCAT (site CTACTAGCTCT)”, 0.115. For “CTACTAGCTTGGGTTCTAACCTGTTGCAT (site CTACTAGCTGT)” the value was 0.167.

For the sequence “CTACTAGCTTGGGTTCTAACCTGTTGCAT (site CTACTAGCTTT)”, the “recombinant barcode read abundance (log10)” value was 0.139. In the case of “CTAGAAGCTTGGGTTCTAACCTGTTGCGT (site CTAGAAGCTAC)” it was 2.52; in that of “CTAGAAGCTTGGGTTCTAACCTGTTGCGT (site CTAGGAGCTAC)”, 1.05; in that of “CTAGACTCTTGGGTTCTAACCTGTTGCAA (site CTAGACTCTAT)”, 0.644.

Take “CTAGACTCTTGGGTTCTAACCTGTTGCAA (site CTAGACTCTCT)”: the “recombinant barcode read abundance (log10)” value came to 0.287.

In the case of “CTAGACTCTTGGGTTCTAACCTGTTGCAA (site CTAGACTCTGT)”, the “recombinant barcode read abundance (log10)” value came to 0.0566.

On to “CTAGACTCTTGGGTTCTAACCTGTTGCAA (site CTAGACTCTTT)”, for which the “recombinant barcode read abundance (log10)” value was determined as 2. In the case of “CTAGACTCTTGGGTTCTAACCTGTTGCTC (site CTAGACTCTAA)” it was 0.0434; in that of “CTAGACTCTTGGGTTCTAACCTGTTGCTC (site CTAGACTCTCA)”, 0.0281; in that of “CTAGACTCTTGGGTTCTAACCTGTTGCTC (site CTAGACTCTGA)”, 2.84. “CTAGACTCTTGGGTTCTAACCTGTTGCTC (site CTAGACTCTTA)”: the “recombinant barcode read abundance (log10)” value is 0.275. In the case of “CTAGACTCTTGGGTTCTAACCTGTTGCTT (site CTAGACTCTAA)” it was 2.89; in that of “CTAGACTCTTGGGTTCTAACCTGTTGCTT (site CTAGACTCTCA)”, 0.304. With “CTAGACTCTTGGGTTCTAACCTGTTGCTT (site CTAGACTCTGA)”, the “recombinant barcode read abundance (log10)” value was 0.0758. Consider “CTAGACTCTTGGGTTCTAACCTGTTGCTT (site CTAGACTCTTA)”, for which the “recombinant barcode read abundance (log10)” value was determined as 0.261. In the case of “CTAGATGCTTGGGTTCTAACCTGTTGCGA (site AGTTCATCTAT)” it was 0.0418. For the sequence “CTAGATGCTTGGGTTCTAACCTGTTGCGA (site CTAGATGCTTC)”, the “recombinant barcode read abundance (log10)” value is 1.94. In the case of “CTAGATTCTTGGGTTCTAACCTGTTGCAT (site ACGATAACTTG)” it was 0.0921; in that of “CTAGATTCTTGGGTTCTAACCTGTTGCAT (site CTAGATTCTAT)”, 2.61; in that of “CTAGCAACTTGGGTTCTAACCTGTTGCTT (site CTAGCAACTAA)”, 0.26. For “CTAGCAACTTGGGTTCTAACCTGTTGCTT (site CTAGCAGCTAT)” the value was 0.124. Take “CTAGCAGCTTGGGTTCTAACCTGTTGCAT (site CTAGCAACTAA)”: the “recombinant barcode read abundance (log10)” value amounted to 0.197. For the sequence “CTAGCAGCTTGGGTTCTAACCTGTTGCAT (site CTAGCAGCTAT)”, the “recombinant barcode read abundance (log10)” value was 0.434.

Consider “CTAGCCACTTGGGTTCTAACCTGTTGCTA (site CTAGCCACTTA)”, for which the “recombinant barcode read abundance (log10)” value stood at 1.01. For “CTAGCCACTTGGGTTCTAACCTGTTGCTA (site CTAGCGACTCA)” the value was 0.38; for “CTAGGAACTTGGGTTCTAACCTGTTGCTA (site AGGTTCCCTCC)”, 0.454. On to “CTAGGAACTTGGGTTCTAACCTGTTGCTA (site CTAGGAACTTA)”, for which the “recombinant barcode read abundance (log10)” value came to 0.635. In the case of “CTAGGAGCTTGGGTTCTAACCTGTTGCTC (site CTAGGAGCTAA)” it was 0.241. On to “CTAGGAGCTTGGGTTCTAACCTGTTGCTC (site CTAGGAGCTCA)”, for which the “recombinant barcode read abundance (log10)” value was found to be 0.222. In the case of “CTAGGAGCTTGGGTTCTAACCTGTTGCTC (site CTAGGAGCTGA)” it was 0.885. For “CTAGGAGCTTGGGTTCTAACCTGTTGCTC (site CTAGGAGCTTA)” the value was 0.126; for “CTAGTGACTTGGGTTCTAACCTGTTGCGA (site CTAGTGACTAC)”, 0.0588; for “CTAGTGACTTGGGTTCTAACCTGTTGCGA (site CTAGTGACTCC)”, 0.576. Turning to “CTAGTGACTTGGGTTCTAACCTGTTGCGA (site CTAGTGACTGC)”, the “recombinant barcode read abundance (log10)” value turned out to be 0.0599. For “CTAGTGACTTGGGTTCTAACCTGTTGCGA (site CTAGTGACTTC)” the value was 1.99; for “CTAGTGACTTGGGTTCTAACCTGTTGCGG (site CTAGTGACTAC)”, 0.0948; for “CTAGTGACTTGGGTTCTAACCTGTTGCGG (site CTAGTGACTCC)”, 1.74. As for “CTAGTGACTTGGGTTCTAACCTGTTGCGG (site CTAGTGACTGC)”, the “recombinant barcode read abundance (log10)” value was 0.141.

As for “CTAGTGACTTGGGTTCTAACCTGTTGCGG (site CTAGTGACTTC)”, the “recombinant barcode read abundance (log10)” value was determined as 0.352. For the sequence “CTAGTGTCTTGGGTTCTAACCTGTTGCAC (site CTAGTCACTGT)”, the “recombinant barcode read abundance (log10)” value is 0.198. For “CTAGTGTCTTGGGTTCTAACCTGTTGCAC (site CTAGTGTCTGT)” the value was 1.88; for “CTAGTGTCTTGGGTTCTAACCTGTTGCTA (site CTAGTGTCTTA)”, 2.72. In the case of “CTAGTGTCTTGGGTTCTAACCTGTTGCTA (site GTAGTGTCTTA)” it was 0.0109.

On to “CTATAGGCTTGGGTTCTAACCTGTTGCCT (site ATATACGCTAG)”, for which the “recombinant barcode read abundance (log10)” value is 0.0845. “CTATAGGCTTGGGTTCTAACCTGTTGCCT (site CTATAGGCTAG)”: the “recombinant barcode read abundance (log10)” value amounted to 0.159. For “CTATATACTTGGGTTCTAACCTGTTGCCA (site CTATATACTTG)” the value was 0.154.

As to “CTATATACTTGGGTTCTAACCTGTTGCCA (site CTGTATACTTG)”, the “recombinant barcode read abundance (log10)” value was 0. For “CTATATACTTGGGTTCTAACCTGTTGCTT (site CTAAATACTAA)” the value was 0.088; for “CTATATACTTGGGTTCTAACCTGTTGCTT (site CTATATACTAA)”, 0.804. For “CTATGAACTTGGGTTCTAACCTGTTGCCA (site CTATGAACTTG)” the value was 0.283.

Turning to “CTATGAACTTGGGTTCTAACCTGTTGCCA (site GACATTCCTAA)”, the “recombinant barcode read abundance (log10)” value stood at 0.0769. Consider “CTATGACCTTGGGTTCTAACCTGTTGCAT (site CTATGACCTAA)”, for which the “recombinant barcode read abundance (log10)” value was 0.0613. In the case of “CTATGACCTTGGGTTCTAACCTGTTGCAT (site CTATGACCTAC)” it was 0.139; in that of “CTATGACCTTGGGTTCTAACCTGTTGCAT (site CTATGACCTAG)”, 0.19; in that of “CTATGACCTTGGGTTCTAACCTGTTGCAT (site CTATGACCTAT)”, 0.568. As for “CTATGACCTTGGGTTCTAACCTGTTGCGT (site CTATGACCTAA)”, the “recombinant barcode read abundance (log10)” value is 0.191.

For “CTATGACCTTGGGTTCTAACCTGTTGCGT (site CTATGACCTAC)”, the “recombinant barcode read abundance (log10)” value turned out to be 2.11. For “CTATGACCTTGGGTTCTAACCTGTTGCGT (site CTATGACCTAG)”, the “recombinant barcode read abundance (log10)” value is 0.211.

Regarding “CTATGACCTTGGGTTCTAACCTGTTGCGT (site CTATGACCTAT)”, the “recombinant barcode read abundance (log10)” value was 1.26. For “CTATGACCTTGGGTTCTAACCTGTTGCTT (site CTATGACCTAA)” the value was 1.4; for “CTATGACCTTGGGTTCTAACCTGTTGCTT (site CTATGACCTAC)”, 0.0411. In the case of “CTATGACCTTGGGTTCTAACCTGTTGCTT (site CTATGACCTAG)”, the “recombinant barcode read abundance (log10)” value was 1.26.

“CTATGACCTTGGGTTCTAACCTGTTGCTT (site CTATGACCTAT)”: the “recombinant barcode read abundance (log10)” value was 0.394. In the case of “CTATGGACTTGGGTTCTAACCTGTTGCAA (site CTATGGACTAT)”, the “recombinant barcode read abundance (log10)” value came out at 0.0174. In the case of “CTATGGACTTGGGTTCTAACCTGTTGCAA (site CTATGGACTCT)” it was 0.23. In the case of “CTATGGACTTGGGTTCTAACCTGTTGCAA (site CTATGGACTGT)” it was 0.274.
